From ChEMBL document CHEMBL5523754, “Discovery of Biphenyl Derivatives to Target Hsp70-Bim Protein-Protein Interaction in Chronic Myeloid Leukemia by Scaffold Hopping Strategy” (J Med Chem, 2024)
Values after ≈ are worked out from the molar mass of the structure shown. Active and inactive are the calls of the source. The rule behind the calls is not given here.

Columns and labels:
[1] = Inhibition of N-terminal 6xHis tagged human Hsp70 expressed in Escherichia coli BL21 (DE3)/FAM-labeled BimBH3 peptide (unknown origin) protein protein interaction incubated for 10 mins by fluorescence polarization assay
Homo sapiens [2] = species on record: Homo sapiens; test: Inhibition of BimBH3 peptide stimulated human N-terminal 6xHis tagged Hsp70 ATPase activity expressed in Escherichia coli BL21 (DE3) at 0 to 50 uM preincubated for 30 mins followed by ATP addition and measured after 10 mins by luciferin based luminescence analysis; details: dose 0-50 µM, time 40.0 min
Homo sapiens [3] = species on record: Homo sapiens; test: Effect on human N-terminal 6xHis tagged HSP70 basal ATPase activity expressed in Escherichia coli BL21 (DE3) at 0 to 50 uM preincubated for 30 mins followed by ATP addition and measured after 10 mins by luciferin based luminescence analysis; details: dose 0-50 µM, time 40.0 min
K562 [4] = test: Inhibition of HSP70/Bim protein-protein interaction in human K562 cells assessed as reduction in AKT protein expression incubated for 12 hrs by Western blot analysis; assay type: cell-based
[5] = Binding affinity to N-terminal 6xHis tagged human HSP70 expressed in Escherichia coli BL21 (DE3) assessed as dissociation constant by ITC analysis
[6] = Aqueous solubility of compound at pH 7 at 10 mg incubated for 24 hrs under shaking condition by HPLC method; assay type: physicochemical; details: aqueous medium
K562 [7] = test: Induction of apoptosis in human K562 cells incubated for 48 hrs by Annexin V-FITC staining based flow cytometry analysis; assay type: functional, cell-based; details: K562, 48 h
K562 [8] = test: Inhibition of HSP70/Bim protein-protein interaction in human K562 cells assessed as reduction in eIF4E protein expression incubated for 12 hrs by Western blot analysis; assay type: cell-based
K562 [9] = test: Inhibition of HSP70/Bag3 protein-protein interaction in human K562 cells at 3 uM incubated for 12 hrs by coimmunoprecipitation analysis; assay type: cell-based
BV-173 = test: Induction of apoptosis in human BV-173 cells incubated for 48 hrs by Annexin V-FITC staining based flow cytometry analysis; assay type: functional, cell-based; details: BV-173, 48 h
HEK293 = test: Induction of apoptosis in HEK293 cells assessed as apoptotic rate at 15 uM incubated for 48 hrs by Annexin V-FITC staining based flow cytometry analysis relative to control; assay type: toxicity, cell-based; details: human, hek293, 48 h
BaF3 = test: Induction of apoptosis in mouse BaF3 cells assessed as apoptotic rate at 15 uM incubated for 48 hrs by Annexin V-FITC staining based flow cytometry analysis relative to control; assay type: toxicity, cell-based; details: baf3, 48 h
[10] = Induction of apoptosis in human Imatinib-resistant K562-R3 cells incubated for 48 hrs by Annexin V-FITC staining based flow cytometry analysis; assay type: functional; details: Imatinib-resistant K562-R3 cell
K562 [11] = test: Inhibition of HSP70/Bim protein-protein interaction in human K562 cells assessed as reduction in Raf-1 protein expression incubated for 12 hrs by Western blot analysis; assay type: cell-based
K562 [12] = test: Inhibition of HSP70/Bim protein-protein interaction in human K562 cells assessed as reduction in Raf-1 protein expression at 2 uM incubated for 12 hrs by Western blot analysis; assay type: cell-based
K562 [13] = test: Inhibition of HSP70/Bag3 protein-protein interaction in human K562 cells at 0.5 to 3 uM incubated for 12 hrs by coimmunoprecipitation analysis; assay type: cell-based; details: dose 0.5-3 µM
K562 [14] = test: Inhibition of HSP70/Bim protein-protein interaction in human K562 cells assessed as reduction in eIF4E protein expression at 2 uM incubated for 12 hrs by Western blot analysis; assay type: cell-based
K562 [15] = test: Inhibition of HSP70/Bim protein-protein interaction in human K562 cells incubated for 12 hrs by coimmunoprecipitation analysis; assay type: cell-based; details: dose 0.5-3 µM
K562 [16] = test: Induction of apoptosis in Bim shRNA-transfected human K562 cells assessed as increase in PARP cleavage at 2 uM incubated for 24 hrs by Western blot analysis; assay type: functional, cell-based
K562 [17] = test: Induction of apoptosis in Hsp70 shRNA-transfected human K562 cells assessed as increase in PARP cleavage at 2 uM incubated for 24 hrs by Western blot analysis; assay type: functional, cell-based
K562 [18] = test: Inhibition of HSP70/Bim protein-protein interaction in human K562 cells assessed as reduction in AKT protein expression at 2 uM incubated for 12 hrs by Western blot analysis; assay type: cell-based
Homo sapiens [19] = species on record: Homo sapiens; test: (§1) Inhibition of BimBH3 peptide stimulated human N-terminal 6xHis tagged Hsp70 ATPase activity expressed in Escherichia coli BL21 (DE3) preincubated for 30 mins followed by ATP addition and measured after 10 mins by luciferin based luminescence analysis; details: time 40.0 min
[20] = as §1
[21] = Induction of apoptosis in HEK293 cells incubated for 48 hrs by Annexin V-FITC staining based flow cytometry analysis; assay type: toxicity, cell-based; details: human
[22] = Induction of apoptosis in mouse BaF3 cells incubated for 48 hrs by Annexin V-FITC staining based flow cytometry analysis; assay type: toxicity, cell-based
K562 [23] = test: Inhibition of HSP70/Bag3 protein-protein interaction in human K562 cells at 5 uM incubated for 12 hrs by coimmunoprecipitation analysis; assay type: cell-based
Homo sapiens [24] = species on record: Homo sapiens; test: Inhibition of human N-terminal 6xHis tagged HSP70 basal ATPase activity expressed in Escherichia coli BL21 (DE3) at 0 to 50 uM preincubated for 30 mins followed by ATP addition and measured after 10 mins by luciferin based luminescence analysis; details: dose 0-50 µM, time 40.0 min
K562 [25] = test: Inhibition of HSP70/Bim protein-protein interaction in human K562 cells at 5 uM incubated for 12 hrs by coimmunoprecipitation analysis; assay type: cell-based

IC50 [1] [µM] | inhibition (Homo sapiens [2]) | Activity (Homo sapiens [3]) | SMILES | other results
> 10 | Active | inactive | CCN(CC)CCn1cnc2ccc(NC(=O)NC3CCCCC3)cc21 | 
> 10 | Active | inactive | CN(C)CCn1ccc2ccc(NC(=O)NC3CCCCC3)cc21 | 
0.28 | Active | inactive | CCN(CC)CCNc1cc(-c2ccc(Oc3cc(C)c(Cl)c(C)c3)cc2)cc(O)c1C#N | 
0.82 | Active | inactive | Cc1cccc(Oc2ccc(-c3cc(O)c(C#N)c(NCCN(C)C)c3)cc2)c1 | 
> 10 | Active | inactive | CN(C)CCn1cnc2ccc(NC(=O)NC3CCCCC3)cc21 | 
0.93 | Active | inactive | CN(C)CCNc1cc(-c2ccc(OC3CCCCC3)cc2)cc(O)c1C#N | 
> 10 | Active | inactive | O=C(Nc1ccc2ccn(CCN3CCOCC3)c2c1)NC1CCCCC1 | 
8.8 | Active | inactive | CN(C)CCNc1cc(-c2ccc(OC34CC5CC(CC(C5)C3)C4)cc2)cc(O)c1C#N | 
0.09 | Active | inactive | Cc1cc(Oc2ccc(-c3cc(O)c(C#N)c(NCCN4CCCC4)c3)cc2)cc(C)c1Cl | 
> 10 | Active | inactive | O=C(Nc1ccc2ncn(CCN3CCOCC3)c2c1)NC1CCCCC1 | 
0.41 | Active | inactive | Cc1cc(Oc2ccc(-c3cc(O)c(C#N)c(NCCN(C)C)c3)cc2)cc(C)c1N | 
3.6 | Active | inactive | CN(C)CCNc1cc(-c2ccc(OC3CCCCC3)cc2)cc(CC(=O)O)c1C#N | 
> 10 | Active | inactive | Cc1cc(-c2ccc(OC3CCCCC3)cc2)cc(NCCN(C)C)c1C#N | 
0.8 | Active | inactive | CCN(CC)CCNC1=C(C#N)C(=O)c2cccc3c(SC4CCCCC4)ccc1c23 | inhibition (K562 [4]): Active; Kd [5]: 0.688 µM; solubility thermodynamic at 24 h [6]: 0.00719 mg/mL (≈ 16.6 µM); EC50 (K562 [7]): 1.2 µM; inhibition (K562 [8]): Active; inhibition (K562 [9]): inactive; EC50 (BV-173): 0.66 µM; Activity (HEK293): < 10%; Activity (BaF3): < 10%; EC50 [10]: 0.37 µM; inhibition (K562 [11]): Active
> 10 | Active | inactive | O=C(Nc1ccc2ccn(CCN3CCOCC3)c2c1)C1CCCCC1 | 
2.13 | Active | inactive | CN(C)CCNc1cc(-c2ccc(Oc3ccccc3)cc2)cc(O)c1C#N | 
0.07 |  | inactive | Cc1cc(Oc2ccc(-c3cc(O)c(C#N)c(NCCN4CCCCC4)c3)cc2)cc(C)c1Cl | inhibition (K562 [12]): Active; inhibition (K562 [13]): inactive; inhibition (K562 [14]): Active; inhibition (K562 [15]): Dose-Dependent Effect; Kd [5]: 0.123 µM; solubility thermodynamic at 24 h [6]: 0.0294 mg/mL (≈ 61.8 µM); EC50 (K562 [7]): 0.88 µM; Activity (K562 [16]): inactive; EC50 (BV-173): 0.43 µM; Activity (K562 [17]): inactive; inhibition (K562 [18]): Active; Activity (HEK293): < 10%; Activity (BaF3): < 10%; EC50 [10]: 0.19 µM; inhibition (Homo sapiens [19]): Dose-Dependent Effect; IC50 [20]: 4.89 µM
0.88 | Active | inactive | CN(C)CCNc1cc(-c2ccc(Oc3cc(C(C)(C)C)cc(C(C)(C)C)c3)cc2)cc(O)c1C#N | 
8.2 | Active | inactive | CN(C)CCNc1cc(-c2ccc(OC3CCCCC3)cc2)cc(F)c1C#N | 
0.62 | Active | inactive | Cc1cc(C)cc(Oc2ccc(-c3cc(O)c(C#N)c(NCCN(C)C)c3)cc2)c1 | 
 | Active |  | N#Cc1ccc(COC[C@H]2O[C@@H](n3c(NCc4ccc(Cl)c(Cl)c4)nc4c(N)ncnc43)[C@H](O)[C@@H]2O)cc1 | EC50 at 48 h [21]: 6.46 µM; EC50 (K562 [7]): 7.05 µM; EC50 at 48 h [22]: 7.73 µM; inhibition (K562 [23]): inactive; inhibition (Homo sapiens [24]): Active; EC50 (BV-173): 5.64 µM; EC50 [10]: 8.68 µM; inhibition (K562 [25]): inactive
> 10 | Active | inactive | CN(C)CCn1cnc2ccc(NC(=O)C3CCCCC3)cc21 | 
> 10 | Active | inactive | CN(C)CCn1c(=O)oc2ccc(NC(=O)NC3CCCCC3)cc21 | 
0.33 | Active | inactive | Cc1cc(Oc2ccc(-c3cc(O)c(C#N)c(NCCN(C)C)c3)cc2)cc(C)c1Cl | 
